Laboratory results reported in patent US7868030B2, “FBPase inhibitors for diabetes” (Hoffmann-La Roche Inc., priority 2006, dated 2011).

Molecular target: T1, human liver FBPase (Homo sapiens, UniProt P09467)
T1 construct: made in house; host or cells: E. coli
T1 sequence (P09467 2-338 limits assumed): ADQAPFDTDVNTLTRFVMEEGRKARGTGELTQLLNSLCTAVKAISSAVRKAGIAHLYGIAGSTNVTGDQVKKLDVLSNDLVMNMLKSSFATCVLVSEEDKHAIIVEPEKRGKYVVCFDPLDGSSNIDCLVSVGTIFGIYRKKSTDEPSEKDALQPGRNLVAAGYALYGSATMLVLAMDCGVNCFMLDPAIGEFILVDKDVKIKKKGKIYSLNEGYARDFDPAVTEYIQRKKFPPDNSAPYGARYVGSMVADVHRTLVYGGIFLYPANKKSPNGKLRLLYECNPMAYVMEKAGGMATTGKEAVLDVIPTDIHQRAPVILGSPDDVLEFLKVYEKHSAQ
Test: FBPase assay (inorganic phosphate release, malachite green)
Type: biochemical
Settings: recombinant human liver FBPase, 50 μM fructose-1,6-bisphosphate, read-out at 620 nm
Method: The following tests were carried out for evaluating the inhibitory activity of the compounds of the present invention against human liver FBPase (Swissprot Data base reference PO9467, entry F16P_HUMAN).
Enzyme preparation: Human liver FBPase cDNA (NM_000507) was purchased from Origene Technologies, Inc, subcloned in a vector for expression in E. Coli., and sequenced. Recombinant human liver FBPase (hlFBPase) was purified according to the following protocol that uses heat denaturation similarly to that described by El-Maghrabi et. al. [El-Maghrabi, M. R. et al. “Isolation of a human liver fructose-1,6-bisphosphatase cDNA and expression of the protein in Escherichia coli.” J Biol Chem 268:9466-9472, 1993.]. […] Purity of the enzyme preparation was >90% as assessed by Mass spectrometry.
In vitro activity: Recombinant human liver FBPase (hlFBPase) activity was assayed through measuring the inorganic phosphate release that results from the hydrolysis of Fructose-1,6-bisphosphate by the enzyme. […] Anal. Biochem., 171:266-270, 1988], inorganic phosphate can be readily quantified by spectrophotometry at 620 nm after complexation with ammonium molybdate/malachite green reagent. […] Under these conditions, the assay was linear with time and able to detect FBPase inhibition after spectrophotometric read-out at 620 nm.

Row | SMILES | IC50
1 | COc1ccc(-c2sc(S(=O)(=O)NC(=O)Nc3ncc(Br)s3)cc2C)cc1 [Example 52, N-[(5-Bromo-1,3-thiazol-2-yl)carbamoyl]-5-(4-methoxyphenyl)-4-methyl-thiophene-2-sulfonamide] | 65 nM
2 | Cc1cccc(S(=O)(=O)NC(=O)Nc2ncc(Br)s2)c1 [Example 5, N-[(5-Bromo-1,3-thiazol-2-yl)carbamoyl]-3-methylbenzenesulfonamide] | 250 nM
